ChEMBL document CHEMBL1201862, “PubChem BioAssay data set” (2004)
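Tested at 5 concentrations; 48 h exposure; 96-well plates; endpoints linearly interpolated, else capped at highest concentration. GI50: concentration for 50% inhibition of growth.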 Calls of active or inactive are those of the source. Cut-off read from the data, not from the text of the source: active = GI50 up to about 1.1 µM and inactive = higher.

Columns and labels:
Experiment in all cases: growth of human tumour cells (NCI), 48 h
BT-549 = system: BT-549
CAKI-1 = system: CAKI-1
COLO 205 = system: COLO 205
HCT-15 = system: HCT-15
HOP-92 = system: HOP-92
IGROV-1 = system: IGROV-1
MCF7 = system: MCF7
MOLT-4 = system: MOLT-4
Malme-3M = system: Malme-3M
NCI-H226 = system: NCI-H226
OVCAR-4 = system: OVCAR-4
OVCAR-5 = system: OVCAR-5
PC-3 = system: PC-3
SF-539 = system: SF-539
SK-MEL-28 = system: SK-MEL-28
SK-MEL-2 = system: SK-MEL-2
SK-MEL-5 = system: SK-MEL-5
SN12C = system: SN12C
U-251 = system: U-251
UACC-257 = system: UACC-257

Measured: GI50

CN(C)CCCNC(=O)c1cc(NC(=O)c2cc(NC(=O)c3cc(NC(=O)CCCn4ccc(CO)c4CO)cn3C)cn2C)cn1C
inactive: BT-549 2.64 µM | CAKI-1 > 100 µM | COLO 205 11.2 µM | HOP-92 13 µM | IGROV-1 3.2 µM | MCF7 3.27 µM | MOLT-4 4.74 µM | Malme-3M 14.5 µM | NCI-H226 2.97 µM | OVCAR-4 19.5 µM | OVCAR-5 3.99 µM | PC-3 12.2 µM | SF-539 3.44 µM | SK-MEL-28 11.4 µM | SK-MEL-2 25.6 µM | SK-MEL-5 2.71 µM | SN12C 6.18 µM | U-251 2.77 µM
> 100 µM: HCT-15

N=c1nc(N)c2cc3c(N)nc(=N)c3cc12
inactive: BT-549 3.99 µM | CAKI-1 8.38 µM | COLO 205 > 91.8 µM | HOP-92 3.94 µM | IGROV-1 > 100 µM | MCF7 33.5 µM | MOLT-4 4.07 µM | Malme-3M 2.95 µM | NCI-H226 13 µM | OVCAR-4 15.4 µM | OVCAR-5 19.1 µM | PC-3 36.1 µM | SF-539 4.85 µM | SK-MEL-28 2.45 µM | SK-MEL-2 3.31 µM | SK-MEL-5 60.8 µM | SN12C 5.07 µM | U-251 11.5 µM | UACC-257 3.37 µM
71.6 µM: HCT-15

Cc1nc2ccc(S(=O)(=O)O)cc2c(=O)n1-c1ccc(C(=O)NN2C(=O)C(Cl)C2c2cccs2)cc1 (stereo not drawn)
inactive: BT-549 > 100 µM | CAKI-1 > 100 µM | COLO 205 > 100 µM | HOP-92 > 100 µM | MCF7 > 100 µM | MOLT-4 > 100 µM | Malme-3M > 100 µM | NCI-H226 > 100 µM | OVCAR-4 24.5 µM | OVCAR-5 > 100 µM | PC-3 > 100 µM | SF-539 48 µM | SK-MEL-28 > 100 µM | SK-MEL-2 23.3 µM | SK-MEL-5 > 100 µM | SN12C > 100 µM | U-251 > 100 µM | UACC-257 > 100 µM
> 100 µM: HCT-15

CC(C)(C)c1cc(/C=C(\C#N)C2=NCCO2)cc(C(C)(C)C)c1O
3.29 µM: HCT-15
inactive: BT-549 3.43 µM | CAKI-1 3.04 µM | COLO 205 1.91 µM | HOP-92 4.06 µM | IGROV-1 6.58 µM | MCF7 3.4 µM | MOLT-4 3.37 µM | Malme-3M 7.26 µM | NCI-H226 5.4 µM | OVCAR-4 3.13 µM | OVCAR-5 2.89 µM | PC-3 2.65 µM | SF-539 3.77 µM | SK-MEL-28 6.35 µM | SK-MEL-2 2.75 µM | SK-MEL-5 2.38 µM | SN12C 2.94 µM | U-251 3.31 µM | UACC-257 2.64 µM

CCCCOc1c(C(=O)O)cc(Br)cc1C(=O)O
> 100 µM: HCT-15
inactive: BT-549 > 100 µM | CAKI-1 > 100 µM | COLO 205 > 100 µM | HOP-92 > 100 µM | IGROV-1 > 100 µM | MCF7 > 100 µM | MOLT-4 > 100 µM | Malme-3M > 100 µM | NCI-H226 > 100 µM | OVCAR-4 > 100 µM | OVCAR-5 > 100 µM | PC-3 > 100 µM | SF-539 > 100 µM | SK-MEL-28 > 100 µM | SK-MEL-2 > 100 µM | SK-MEL-5 > 100 µM | SN12C > 100 µM | U-251 > 100 µM | UACC-257 > 100 µM

C/C(Nc1ccc(Cl)cc1)=C1/CCOC1=O
> 100 µM: HCT-15
inactive: BT-549 52.7 µM | CAKI-1 > 66.1 µM | COLO 205 1.44 µM | HOP-92 > 100 µM | IGROV-1 > 23 µM | MCF7 13.2 µM | MOLT-4 1.93 µM | Malme-3M > 100 µM | NCI-H226 > 100 µM | OVCAR-4 > 100 µM | OVCAR-5 > 20.5 µM | PC-3 > 43.7 µM | SF-539 > 25.4 µM | SK-MEL-28 > 100 µM | SK-MEL-2 12.7 µM | SK-MEL-5 1.13 µM | SN12C > 100 µM | U-251 > 100 µM | UACC-257 46.5 µM

Cc1ccc(S(=O)(=O)n2cc(C=O)c(-c3cn(S(=O)(=O)c4ccc(C)cc4)cc3-c3cn(S(=O)(=O)c4ccc(C)cc4)cc3C=O)c2)cc1
55.7 µM: HCT-15
inactive: BT-549 60.1 µM | CAKI-1 > 100 µM | COLO 205 75.2 µM | HOP-92 45.4 µM | IGROV-1 53.8 µM | MCF7 27.4 µM | MOLT-4 12.8 µM | Malme-3M 24.3 µM | NCI-H226 29.6 µM | OVCAR-5 85.3 µM | PC-3 27.5 µM | SF-539 25.9 µM | SK-MEL-2 33.8 µM | SK-MEL-5 41.6 µM | SN12C > 100 µM | U-251 29.6 µM | UACC-257 54.1 µM

O=[N+]([O-])c1ccc2c(c1)c1nn2CCCCOc2nn(c3ccc([N+](=O)[O-])cc23)CCCCO1
inactive: BT-549 > 100 µM | CAKI-1 > 100 µM | COLO 205 > 100 µM | HOP-92 > 100 µM | IGROV-1 > 100 µM | MCF7 > 100 µM | MOLT-4 > 100 µM | Malme-3M > 100 µM | NCI-H226 > 100 µM | OVCAR-4 > 100 µM | OVCAR-5 > 100 µM | PC-3 > 100 µM | SF-539 > 100 µM | SK-MEL-28 > 100 µM | SK-MEL-2 > 100 µM | SN12C > 100 µM | U-251 > 100 µM | UACC-257 > 100 µM
> 100 µM: HCT-15

c1ccc2c(c1)nc1n2CCNC1
inactive: BT-549 > 100 µM | CAKI-1 > 100 µM | COLO 205 > 100 µM | HOP-92 > 100 µM | IGROV-1 > 100 µM | MCF7 > 100 µM | MOLT-4 > 100 µM | NCI-H226 > 100 µM | OVCAR-4 > 100 µM | OVCAR-5 > 100 µM | PC-3 > 100 µM | SF-539 > 100 µM | SK-MEL-28 > 100 µM | SK-MEL-2 > 100 µM | SK-MEL-5 > 100 µM | SN12C > 100 µM | U-251 > 100 µM | UACC-257 > 100 µM
> 100 µM: HCT-15

Cc1cc(C)c2c(=O)n(CN3CCC(O)(c4ccccc4)CC3)sc2n1
34.7 µM: HCT-15
inactive: BT-549 97.3 µM | CAKI-1 43.5 µM | COLO 205 39.2 µM | HOP-92 > 100 µM | IGROV-1 > 100 µM | MCF7 47.9 µM | MOLT-4 28.1 µM | Malme-3M 17.6 µM | NCI-H226 > 100 µM | OVCAR-4 29.4 µM | OVCAR-5 23 µM | PC-3 60.1 µM | SF-539 21.2 µM | SK-MEL-28 56.2 µM | SK-MEL-2 > 100 µM | SK-MEL-5 97.3 µM | SN12C 25.7 µM | U-251 77.8 µM

CSc1ccc(-c2cc(-c3nc4ccccc4[nH]3)nc(N)c2C#N)cc1
inactive: BT-549 20.6 µM | CAKI-1 18.3 µM | COLO 205 15.9 µM | HOP-92 8.55 µM | IGROV-1 8.67 µM | MCF7 15.6 µM | MOLT-4 8.39 µM | Malme-3M 19.4 µM | NCI-H226 21.3 µM | OVCAR-5 26.6 µM | PC-3 20.7 µM | SF-539 23.6 µM | SK-MEL-28 20.2 µM | SK-MEL-2 16.9 µM | SK-MEL-5 13.3 µM | SN12C 25.8 µM | UACC-257 18.5 µM
20.2 µM: HCT-15

COc1cccc(CN(C(=O)/C=C\Sc2ccccc2)C(C)(C)C)c1
inactive: BT-549 90.2 µM | CAKI-1 > 100 µM | COLO 205 63.7 µM | HOP-92 2.61 µM | IGROV-1 57.1 µM | MCF7 81.3 µM | MOLT-4 18.1 µM | NCI-H226 > 100 µM | OVCAR-4 96.8 µM | OVCAR-5 > 100 µM | PC-3 33 µM | SF-539 > 100 µM | SK-MEL-28 > 100 µM | SK-MEL-2 54.8 µM | SK-MEL-5 49 µM | SN12C > 100 µM | U-251 > 100 µM | UACC-257 41 µM
44.6 µM: HCT-15

O=[N+]([O-])C(=C(Nc1ccccc1)Nc1ccccc1)C(Cl)=C(Cl)Cl
inactive: BT-549 13.9 µM | CAKI-1 17.1 µM | COLO 205 17.5 µM | HOP-92 15.8 µM | IGROV-1 12.9 µM | MCF7 12 µM | Malme-3M 19.6 µM | NCI-H226 19 µM | OVCAR-4 12.2 µM | OVCAR-5 23.1 µM | PC-3 15.2 µM | SF-539 20.2 µM | SK-MEL-28 18.7 µM | SK-MEL-2 13.1 µM | SK-MEL-5 13.8 µM | SN12C 17.1 µM | U-251 20.2 µM | UACC-257 14.9 µM
16.3 µM: HCT-15

Cc1ccc(/N=N/C(=N\c2ccc(F)cc2)c2ccc(N(CCC#N)CCC#N)cc2)cc1
> 100 µM: HCT-15
inactive: BT-549 67.8 µM | CAKI-1 > 100 µM | COLO 205 64.4 µM | HOP-92 > 100 µM | IGROV-1 70.1 µM | MCF7 42.5 µM | MOLT-4 > 100 µM | NCI-H226 > 100 µM | OVCAR-4 60.3 µM | OVCAR-5 > 100 µM | PC-3 51.6 µM | SF-539 > 100 µM | SK-MEL-28 > 100 µM | SK-MEL-2 62.7 µM | SK-MEL-5 44.1 µM | SN12C > 100 µM | U-251 36.2 µM | UACC-257 30.3 µM
